What was measured:
[1] = Metabolic stability in human microsomes; assay type: ADME, Microsome
P2Y purinoceptor 12 = P2Y purinoceptor 12 (Homo sapiens, UniProt Q9H244); test: Inhibition of human P2Y12 receptor expressed in CHO cells
[2] = Antiplatelet activity in human platelet rich plasma assessed as inhibition of ADP-induced platelet aggregation; assay type: functional
[3] = Antiplatelet activity in human platelet rich plasma assessed as inhibition of ADP-induced platelet aggregation relative to AZD-6140; assay type: functional
[4] = Metabolic stability in rat microsomes; assay type: ADME, Microsome

P2Y purinoceptor 12, sequence (Q9H244 whole entry): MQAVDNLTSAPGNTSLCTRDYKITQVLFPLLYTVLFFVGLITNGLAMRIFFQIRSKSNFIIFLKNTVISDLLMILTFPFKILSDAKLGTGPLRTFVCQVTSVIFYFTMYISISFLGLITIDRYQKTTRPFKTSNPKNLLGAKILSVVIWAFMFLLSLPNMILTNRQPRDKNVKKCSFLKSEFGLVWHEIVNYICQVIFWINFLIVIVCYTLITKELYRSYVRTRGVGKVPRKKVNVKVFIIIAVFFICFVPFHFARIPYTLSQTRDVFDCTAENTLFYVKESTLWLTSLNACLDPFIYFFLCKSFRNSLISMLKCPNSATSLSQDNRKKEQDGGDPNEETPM

| Stability [1] | Ki (P2Y purinoceptor 12) | IC50 [2] | Stability [4] | Structure (SMILES) | fold change (FC) [3] |
| --- | --- | --- | --- | --- | --- |
| Stable | 8 nM | 750 nM | Stable | CCCCCOC(=O)N1CCN(C(=O)[C@H](CCC(=O)O)NC(=O)c2cc(N3CCC(CCN4CCCC4)CC3)cc(-c3ccccc3)n2)CC1 | 0.59 |
| Stable | 2 nM | 1800 nM | Stable | CCCCCOC(=O)N1CCN(C(=O)[C@H](CCC(=O)O)NC(=O)c2cc(N3CC(C(=O)NCC)C3)cc(-c3ccccc3)n2)CC1 | 1.5 |
| Stable | 1.5 nM | 800 nM | Stable | CCCCOC(=O)N1CCN(C(=O)[C@H](CCC(=O)O)NC(=O)c2cc(N3CCC(CN4CCCC4)CC3)cc(-c3ccccc3)n2)CC1 | 1 |
| Stable | 7.5 nM | 2400 nM | Stable | CCCCOC(=O)N1CCN(C(=O)[C@H](CCC(=O)O)NC(=O)c2cc(N3CCC(CN(CC)CC)CC3)cc(-c3ccccc3)n2)CC1 | 2.1 |
| Stable | 24 nM | 3600 nM | Stable | CCCCCOC(=O)N1CCN(C(=O)[C@H](CCC(=O)O)NC(=O)c2cc(N3CC[C@@H](C(=O)N(C)C)C3)cc(-c3ccccc3)n2)CC1 | 3.8 |
| Stable | 10 nM | 2600 nM | Stable | CCCCCOC(=O)N1CCN(C(=O)[C@H](CCC(=O)O)NC(=O)c2cc(N3CCCC(CN4CCCC4=O)C3)cc(-c3ccccc3)n2)CC1 (stereo not given in full) | 3.8 |
| Stable | 10 nM | 6100 nM | Stable | CCCCCOC(=O)N1CCN(C(=O)[C@H](CCC(=O)O)NC(=O)c2cc(N3CCN(C(=O)N4CCCC4)CC3)cc(-c3ccccc3)n2)CC1 | 14 |
| Stable | 15 nM | 780 nM | Stable | CCCCCOC(=O)N1CCN(C(=O)[C@H](CCC(=O)O)NC(=O)c2cc(N3CCC(CN)CC3)cc(-c3ccccc3)n2)CC1 | 0.62 |
| Stable | 1.7 nM | 510 nM | Stable | CCCCCOC(=O)N1CCN(C(=O)[C@H](CCC(=O)O)NC(=O)c2cc(N3CCN(CC(N)=O)CC3)cc(-c3ccccc3)n2)CC1 | 1.8 |
| Stable | 6.3 nM | 1500 nM | Stable | CCCCCOC(=O)N1CCN(C(=O)[C@H](CCC(=O)O)NC(=O)c2cc(N3CCN(CCOCCC)CC3)cc(-c3ccccc3)n2)CC1 | 3.1 |
| Stable | 11 nM | 2700 nM | Stable | CCCCCOC(=O)N1CCN(C(=O)[C@H](CCC(=O)O)NC(=O)c2cc(N3CCC(CCOC)CC3)cc(-c3ccccc3)n2)CC1 | 3.5 |
| Stable | 8.9 nM | 680 nM | Stable | CCCCCOC(=O)N1CCN(C(=O)[C@H](CCC(=O)O)NC(=O)c2cc(N3CCN(CCS(C)(=O)=O)CC3)cc(-c3ccccc3)n2)CC1 | 0.81 |
| Stable | 31 nM | 7300 nM | Stable | CCCCCOC(=O)N1CCN(C(=O)C(CCC(=O)O)NC(=O)c2cc(N3CCC(COC)C3)cc(-c3ccccc3)n2)CC1 (mixture of isomers) | 10 |
| Stable | 4 nM | 2200 nM | Stable | CCCCCOC(=O)N1CCN(C(=O)[C@H](CCC(=O)O)NC(=O)c2cc(N3CCC(CN(CC)CC)CC3)cc(-c3ccccc3)n2)CC1 | 2.7 |
| Stable | 25 nM | 6800 nM | Stable | CCCCCOC(=O)N1CCN(C(=O)[C@H](CCC(=O)O)NC(=O)c2cc(N3CCC(CNC(C)=O)CC3)cc(-c3ccccc3)n2)CC1 | 3.9 |
| Stable | 4.3 nM | 620 nM | Stable | CCCCOC(=O)N1CCN(C(=O)[C@H](CCC(=O)O)NC(=O)c2cc(N3CCC(C(=O)NC(C)C)CC3)cc(-c3ccccc3)n2)CC1 | 0.82 |

Continued, molecule first:

| Structure (SMILES) | Stability [1] | Ki (P2Y purinoceptor 12) | IC50 [2] | Stability [4] | fold change (FC) [3] |
| --- | --- | --- | --- | --- | --- |
| CCCCCOC(=O)N1CCN(C(=O)[C@H](CCC(=O)O)NC(=O)c2cc(N3CCN(CCN)CC3)cc(-c3ccccc3)n2)CC1 | Stable | 4.5 nM | 1100 nM | Stable | 1.6 |
| CCCCCOC(=O)N1CCN(C(=O)[C@H](CCC(=O)O)NC(=O)c2cc(N3CCN(C(=O)N(CC)CC)CC3)cc(-c3ccccc3)n2)CC1 | Stable | 12 nM | 3200 nM | Stable | 4.6 |
| CCCCCOC(=O)N1CCN(C(=O)[C@H](CCC(=O)O)NC(=O)c2cc(N3CCCC(C(=O)N(CC)CC)C3)cc(-c3ccccc3)n2)CC1 (stereo not given in full) | Stable | 26 nM | 7700 nM | Stable | 4.2 |
| CCCCCOC(=O)N1CCN(C(=O)[C@H](CCC(=O)O)NC(=O)c2cc(N3CCC(CNC)CC3)cc(-c3ccccc3)n2)CC1 | Stable | 1.5 nM | 710 nM | Stable | 0.99 |
| CCCCCOC(=O)N1CCN(C(=O)[C@H](CCC(=O)O)NC(=O)c2cc(N3CCN(C(=O)N(C)C)CC3)cc(-c3ccccc3)n2)CC1 | Stable | 5.9 nM | 3000 nM | Stable | 3.6 |
| CCCCCOC(=O)N1CCN(C(=O)[C@H](CCC(=O)O)NC(=O)c2cc(N3CCC(C(=O)NC)CC3)cc(-c3ccccc3)n2)CC1 | Stable | 7.9 nM | 1600 nM | Stable | 0.86 |
| CCCCCOC(=O)N1CCN(C(=O)[C@H](CCC(=O)O)NC(=O)c2cc(N3CC[C@H](C(=O)N(CC)CC)C3)cc(-c3ccccc3)n2)CC1 | Stable | 1.7 nM | 4800 nM | Stable | 4.6 |
| CCCCCOC(=O)N1CCN(C(=O)[C@H](CCC(=O)O)NC(=O)c2cc(N3CCC(C(=O)NC(C)C)CC3)cc(-c3ccccc3)n2)CC1 | Stable | 6 nM | 750 nM | Stable | 0.64 |
| CCCCCOC(=O)N1CCN(C(=O)[C@H](CCC(=O)O)NC(=O)c2cc(N3CC(CNC)C3)cc(-c3ccccc3)n2)CC1 | Stable | 7.1 nM | 1300 nM | Stable | 1.9 |
| CCCCOC(=O)N1CCN(C(=O)[C@H](CCC(=O)O)NC(=O)c2cc(N3CCC(CNC)CC3)cc(-c3ccccc3)n2)CC1 | Stable | 4 nM | 910 nM | Stable | 1 |
| CCCCCOC(=O)N1CCN(C(=O)[C@H](CCC(=O)O)NC(=O)c2cc(N3CCN(C(=O)C(C)C)CC3)cc(-c3ccccc3)n2)CC1 | Stable | 16 nM | 5000 nM | Stable | 6.6 |

Source: ChEMBL document CHEMBL1156904, “Part II: piperazinyl-glutamate-pyridines as potent orally bioavailable P2Y12 antagonists for inhibition of platelet aggregation” (Bioorg Med Chem Lett, 2010)
